Assays:
C3H/He mice [1] = assay: Trichogenous ratio, Fucoidan Bf combined with carpronium chloride or minoxidil (Example 19); format: in vivo, mouse; conditions: for Trichogenous Ratio (%) (Trichogenous Area/Shaved Area): 200 μL once a day, 6 cases; for Trichogenous Ratio (%) (Trichogenous Area/Shaved Area) / Number of Individuals with Trichogenous Ratio of 60% or More: twenty-first day after shaving
Method: Male C3H/He mice were purchased from Nippon SLC and used for an experiment from 8 week-old after pre-breeding the mice. The hair on the backside of each mouse was cut with hair clippers, and thereafter shaved with a razor. […] The resulting ethanol solution was applied onto the above hair-cut site of the backside of the mice in an amount of 200 μL per mouse. To the control group, 30% ethanol solution was similarly applied. The mice were administered once a day, for consecutive days. The administered sites were observed over the passage of time from the day of the beginning of administration (the day following the shaving), and the trichogenous area was determined on the twenty-first day after shaving and expressed as the ratio (%) to the shaved area.

[2] = system: whiskers with the hair follicles of C3H/He mice; assay: Culture of mouse whiskers with hair follicles, length of grown whisker (Examples 15-18); format: cell-based; conditions: whiskers of 6 day-old mice (Table 14)
Source text: (1) Two day-old male C3H/He mice were purchased from Nippon SLC together with the mother mice and used for an experiment from 5 day-old. The mice were sacrificed by exsanguination, and the whiskers together with the subcutaneous tissues were collected using scissors and tweezers. Further, the whiskers with the hair follicles were separated in a petri dish under the microscope according to the method by Ogawa et al. (J. Invest. Dermatol 103: 306-309, 1994). Fourteen to sixteen whiskers were collected from the right and left sides per mouse. […] Here, the given concentrations of each sample added are respectively expressed as the concentration per mL medium (mg/mL) in Table 10. […] The length of whisker was determined to the order of 0.1 mm before the beginning and after the termination of the culture under the microscope using a caliper. […] In addition, Student's t-test was used for test of significance, and P value was determined against the control group. […] The hair restoring effects for the fucoidan derived from Kjellmaniella crassifolia described in item (1) of Example 1 and 7-12SFd-F described in item (3) of Example 2 were evaluated in the same manner as in item (1) of Example 15. […] The hair restoring effects for Fucoidan Bf described in item (1) of Example 16 and F-rich fucoidan described in item (2) of Example 16 were evaluated in the same manner as in item (1) of Example 15. […]

C3H/He mice [3] = assay: Hair restoring effect of sulfated monosaccharides, scoring as in Example 13(3) (Example 14(2)); format: in vivo, mouse; conditions: 3% in 50% ethanol, 200 μL once a day, score 0-4
Method: The administered site was observed over the passage of time from the beginning of administration, and a change in the skin color tone was evaluated by scoring. Specifically, the scoring criteria were defined as follows: Score 0: no change in the skin color, Score 1: the skin color being changed to blue, Score 2: the skin color being changed to black-blue to gray, Score 3: trichogenous state being observed, and Score 4: the state before the hair cutting being almost restored. (3) Male C3H/He mice were purchased from Nippon SLC and used for an experiment from 8 week-old after pre-breeding the mice. The hair on the backside of each mouse was cut with hair clippers, and thereafter shaved with a razor. (2) The hair restoring effect of the sulfated glucose prepared in item (1) of Example 14 was studied in the same manner as in item (3) of Example 13. Here, the sulfated glucose was dissolved in 50% ethanol in a concentration of 3%, and the resulting solution was applied onto the backside of the mice once a day in an amount of 200 μL per mouse. To the control group, 50% ethanol alone was applied. […] In addition, similar tests were carried out for the sulfated fucose, the sulfated mannose, the sulfated galactose, the sulfated xylose, the sulfated 2-deoxy-glucose and the sulfated talose.

Molecule: COC(=O)CCC[N+](C)(C)C.[Cl-] [Carpronium Chloride, carpronium chloride]
- Trichogenous Ratio (%) (Trichogenous Area/Shaved Area) (C3H/He mice [1]; 0.5% in 30% ethanol): 23.9 ± 4.9%
- Number of Individuals with Trichogenous Ratio of 60% or More (C3H/He mice [1]; 0.5% in 30% ethanol): 0/6
- hair restoring effect (C3H/He mice [1]; administration by application alone (0.5%)): No hair restoring effect

Molecule: Nc1cc(N2CCCCC2)nc(N)[n+]1[O-] [Minoxidil, minoxidil]
- Trichogenous Ratio (%) (Trichogenous Area/Shaved Area) (C3H/He mice [1]; 0.1% in 30% ethanol): 42.9 ± 5.5%
- Number of Individuals with Trichogenous Ratio of 60% or More (C3H/He mice [1]; 0.1% in 30% ethanol): 1/6
- Trichogenous Ratio (%) (Trichogenous Area/Shaved Area) (C3H/He mice [1]; 1% in 30% ethanol): 69.1 ± 13.9%
- Number of Individuals with Trichogenous Ratio of 60% or More (C3H/He mice [1]; 1% in 30% ethanol): 4/6

Molecule: sulfated (—SO3—Na^+) D-(+)-glucose [Sulfated Glucose]
- Length of Grown Whisker (mm) (Average Value ± Standard Error) ([2]; 0.1 mg/mL): 0.39 ± 0.11 mm
- Length of Grown Whisker (mm) (Average Value ± Standard Error) ([2]; 1 mg/mL): 1.31 ± 0.31 mm
- Average Score (C3H/He mice [3]; duration of administration 11 days): 0.6
- Average Score (C3H/He mice [3]; duration of administration 12 days): 0.6
- Average Score (C3H/He mice [3]; duration of administration 13 days): 1.0
- Average Score (C3H/He mice [3]; duration of administration 14 days): 1.6
- Average Score (C3H/He mice [3]; duration of administration 15 days): 1.8
